Measured values taken from US20070141641A1, “Compositions & methods for reformulating biological membranes for arrays” (priority 2003, published 2007).

Tests used:
[1] = biological target: T1, muscarinic receptor subtype 1 (M1) (Homo sapiens, UniProt P11229); test: GPCR membrane microarray, labeled-ligand cocktail binding with or without telenzepine, M1 microspots; conditions: 1 μM telenzepin; cocktail with 2 nM Cy3-B-telenzepine; FIG. 1B
T1 sequence (P11229 1-460): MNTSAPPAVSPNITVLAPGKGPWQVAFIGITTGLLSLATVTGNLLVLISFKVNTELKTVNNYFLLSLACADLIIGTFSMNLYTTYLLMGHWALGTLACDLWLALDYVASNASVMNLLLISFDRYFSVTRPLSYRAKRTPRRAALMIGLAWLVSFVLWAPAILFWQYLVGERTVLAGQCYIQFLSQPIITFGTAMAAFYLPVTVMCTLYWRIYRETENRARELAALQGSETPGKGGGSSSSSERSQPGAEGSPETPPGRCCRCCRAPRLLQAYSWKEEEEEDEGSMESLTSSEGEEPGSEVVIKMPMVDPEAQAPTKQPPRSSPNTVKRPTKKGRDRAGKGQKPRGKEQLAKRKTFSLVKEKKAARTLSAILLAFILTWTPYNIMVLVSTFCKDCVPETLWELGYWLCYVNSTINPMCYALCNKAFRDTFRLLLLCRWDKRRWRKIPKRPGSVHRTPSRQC
Text: (§1) FIG. 1A and FIG. 1B are false-color fluorescence images of two membrane microarrays made using six different GPCR-membrane preparations (from left to right, they are HEK cell membrane as control, muscarinic receptor subtype 1 (M1), motilin receptor (MOTR), neurotensin receptor subtype 1 (NTR1), opioid receptor like subtype 1 (ORL1) and delta 2 opioid receptor (OP1)).
(§2) FIGS. 1A & 1B are false-color fluorescence image of a membrane microarray made using six different GPCR-membrane preparations. The images, in Cy5 to Cy3 ratio, are taken after the array is assayed with a binding buffered solution containing a mixture or cocktail solution of labeled ligands. […] FIGS. 1A and 1B are, respectively, in the absence and presence of 1 μM telenzepin. Before array fabrication, all receptor membranes obtained from commercial vendors are re-formulated using a standardized ink containing: ˜20 mM Tris-HCl, pH 7.4, ˜10 mM MgCl2, ˜10% sucrose, 5% glycerol, 0.5% BSA, total membrane proteins in the range of 1 to 3 mg/ml.

[2] = test system: MOTR, NTR1, ORL1, OP1 receptor microspots; test: GPCR membrane microarray, labeled-ligand cocktail binding with or without telenzepine, other receptor microspots; conditions: 1 μM telenzepin, FIG. 1B
Text: as §1, §2

inhibition of labeled ligand binding to other receptor microspots [2]: not any other receptor microspots
Compound: Cc1scc2c1N(C(=O)CN1CCN(C)CC1)c1ccccc1NC2=O [telenzepine]
inhibition of labeled ligand binding to M1 microspots [1]: specifically inhibits the binding of labeled ligand to M1 microspots
